pEC50, pIC50: −log10 of the molar value.

Assay [1] relates to MV4-11. The assay can be described thus: Antiproliferative activity against human MV4-11 cells assessed as reduction in cell viability measured after 48 hrs by CellTiter-Glo assay. The assay is classed as functional, cell-based. Particulars: MV4-11, 48 h. A general note: Cellular ATP, detected with luciferase, serves as a proxy for viable cell number.
The next assay has as its system Kasumi 1. As to the kind of experiment: cells. Conditions: Homo sapiens, Kasumi 1, 72 h.
In assay [2] the test system is MV4-11. As to the kind of experiment: Antiproliferative activity against human MV4-11 cells assessed as reduction in cell growth. The assay is classed as functional, cell-based.
Assay [3] has as its system MV4-11. As to the kind of experiment: Antiproliferative activity against human MV4-11 cells assessed as reduction in cell growth incubated for 48 hrs by CCK-8 assay. Conditions: MV4-11, 48 h. The assay is classed as functional, cell-based. For orientation: Tetrazolium assays rely on reduction of a dye to a coloured formazan, in cell work by metabolically active cells.

The test system of assay [4] is BaF3. As to the kind of experiment: Antiproliferative activity against mouse BaF3 cells expressing FLT3-ITD F691L mutant incubated for 48 hrs by CCK8 assay. Conditions: BaF3, 48 h. It counts as functional, cell-based.
The subject of assay [5] is MV4-11. The assay can be described thus: Antiproliferative activity against human MV4-11 cells assessed as reduction in cell viability incubated for 48 hrs by MTS assay. It counts as functional, cell-based. Conditions: MV4-11, 48 h.
Assay [6] relates to BaF3. As to the kind of experiment: Antiproliferative activity against mouse BaF3 cells expressing FLT3-ITD D835Y mutant incubated for 48 hrs by CCK8 assay. Conditions: BaF3, 48 h. It counts as functional, cell-based.
Assay [7] has as its system BaF3. As to the kind of experiment: Antiproliferative activity against mouse BaF3 cells expressing FLT3-ITD mutant incubated for 48 hrs by CCK8 assay. Conditions: BaF3, 48 h. It counts as functional, cell-based.
A further assay concerns MOLM-13. As to the kind of experiment: Antiproliferative activity against human MOLM-13 cells assessed as reduction in cell viability incubated for 48 hrs by MTS assay. It counts as functional, cell-based. Particulars: MOLM-13, 48 h.
The subject of assay [8] is MV4-11. The assay can be described thus: cells. Conditions: Homo sapiens.
Description: Antiproliferative activity against human MV4-11 cells assessed as reduction in cell viability by WAT-8 reagent based analysis

Description for Kasumi 1: Antiproliferative activity against human Kasumi 1 cells assessed as reduction in cell viability incubated for 72 hrs by Cell-titer glo luminescent assay

For orientation: pIC50 means the IC50 on a negative log10 scale, so that one unit is a factor of ten. `CC(C)(C)c1cc(NC(=O)Nc2ccc(-c3cn(CCCCc4cn(CCCCC(=O)Nc5cccc6c5CN(C5CCC(=O)NC5=O)C6=O)nn4)c4ncnc(N)c34)cc2)no1` (stereo not given): the pIC50 in the assay on MV4-11 [1] was 8.32.
The term pEC50 denotes the negative decadic logarithm of the EC50, by convention in mol/L. Higher therefore signals a small EC50. For the molecule `Cc1[nH]c(/C=C2\C(=O)Nc3ccc(F)cc32)c(C)c1C(=O)NCCCCCCNc1cccc2c1C(=O)N(C1CCC(=O)NC1=O)C2=O` (stereo not given), the negative-log EC50 (pEC50) in the assay with Kasumi 1 was 7.67.
For `O=C(CCCCCCC(=O)Nc1cc(-c2ccc3ncn(Cc4c(Cl)cccc4Cl)c3c2)[nH]n1)NO`, the pIC50 in the assay with MV4-11 [2] was 7.04.
Regarding `CCc1nc(C(N)=O)c(Nc2ccc(N3CCN(CN4CCN(c5ccc6c(c5)C(=O)N(C5CCC(=O)NC5=O)C6=O)CC4)CC3)c(OC)c2)nc1NC1CCOCC1` (stereo not given), in the assay on MV4-11 [3], the pIC50 was 8.78.
`CCCNc1nc(Nc2ccc(C#N)cc2)ncc1C#CCCCNC(=O)[C@H](C)N(C)C(=O)/C=C/CN(C)C` [FF-10101]: the pIC50 with BaF3 [4] was 7.84; in the assay with MV4-11 [5], 8.96; in the assay with BaF3 [6] it was 7.95; in the assay with BaF3 [7], 8.74; with MOLM-13, 9.08.
As to `CCc1nc(C(N)=O)c(Nc2ccc(N3CCC(N4CCN(C)CC4)CC3)c(OC)c2)nc1NC1CCOCC1` [GILTERITINIB], the pIC50 with MV4-11 [8] is 9.05.
